Assay results taken from US11931412B2, “JAK1 inhibitors and uses thereof” (Washington University, priority 2016, dated 2024).
“Also recorded” adds a separate entry of the source.

Key:
wild type (WT) mice = experiment: Topical MC903 treatment versus vehicle (AD-like inflammation and itch); assay type: in vivo, mouse; conditions: daily topical to ears, compared to vehicle (EtOH)
Description: (§1) For induction of AD-like inflammation and itch, mice were topically treated once daily with 2 nmol of MC903 (calcipotriol, Tocris Bioscience) for 7 days or 1 nmol of MC903 for 12 days on both ears in 20 μL of ethanol (vehicle) as previously described (Kim et al., 2013a, 2014, Siracusa et al., 2011, 2013b). Ear thickness measurements were performed daily with dial calipers as previously described (Kim et al., 2013a, 2014). At the end of the MC903 treatment, murine ear skin tissues were fixed in 4% paraformaldehyde (PFA) and embedded in paraffin before sectioning and staining with Hematoxylin & Eosin (H&E). Histology score was determined by the following formula using ImageJ analysis software (NIH) as previously described: (total number of lymphocytes per high power field (HPF)+thickness of the epidermis measured in microns from the basement membrane to the top of the stratum corneum) divided by 100 (Kim et al., 2014). All images were captured with a NanoZoomer 2.0-HT System (Hamamatsu). Murine disease and behavioral assessment data (below) were derived from two to three independent experiments. For behavioral assessments, mice were first acclimated to the recording room and behavior chambers at least one day prior to testing. On the day of testing, mice were again acclimated to the recording room and behavior chambers and then video recorded. The video recordings were then manually scored for number of scratching bouts per 30 minute block. One scratching bout was defined as one instance of lifting the hind paw from the floor, scratching, and returning the paw to the floor or placing the paw in the animal's mouth. All behavioral tests were performed on sex- and age-matched adult mice (8-12 weeks old).

mouse DRG neurons = experiment: Ratiometric calcium imaging of cultured murine DRG neurons; assay type: cell-based; conditions: for responsive neurons as a percentage of total mouse DRG neurons: cytokines 300 nM, histamine 50 μM, responsive = change in fluorescence ratio >10% of baseline; for calcium response of DRG neurons to stimulation: ex vivo stimulation, recombinant murine cytokine 300 nM; for cytokine-responsive neurons that also responded to IL-31 or histamine: serial stimulation with the cytokine, then IL-31 and histamine
Description: Murine DRG neurons were isolated and cultured using a previously published protocol with slight modification (Malin et al., 2007). Briefly, laminectomies were performed on mice and bilateral DRG were removed. After removal of connective tissues, DRG were transferred to 1 mL Ca^2+/Mg^2+-free Hank's Balanced Salt Solution (HBSS) containing 1 μL saturated NaHCO3, 0.35 mg L-cysteine, and 20 U papain (Worthington) and incubated at 37° C. for 20 min. The suspension was centrifuged, and the supernatant was removed and replaced with 1 mL Ca^2+/Mg^2+-free HBSS containing 3.75 mg collagenase type II (Worthington) and 7.5 mg dispase (Worthington) and incubated at 37° C. for 20 min. After digestion, neurons were gently triturated, pelleted, and then resuspended in Neurobasal-A medium containing 2% B-27 supplement (Gibco), 100 U/mL penicillin plus 100 μg/mL streptomycin (Sigma), 100 ng/mL nerve growth factor (Sigma), and 10% heat-inactivated FBS (Sigma). Neurons were then plated on a 12 mm glass coverslip pre-coated with poly-L-lysine (Sigma) and laminin (Sigma) and cultured under a humidified atmosphere of 5% CO2 at 37° C. for 18-24 hours before use.
Cultured DRG neurons were loaded with 4 μM Fura-2 AM (Life Technologies) in overnight DRG culture medium at 37° C. for 45 minutes. Cells were then washed three times and incubated in calcium imaging buffer (130 mM NaCl, 3 mM KCl, 2.5 mM CaCl2, 0.6 mM MgCl2, 10 mM HEPES, 10 mM glucose, 1.2 mM NaHCO3, pH 7.45) at room temperature for 30 minutes before use. All recombinant murine cytokines (IL-4, IL-5, and IL-13: Peprotech, IL-31: Bristol-Myers Squibb) were used at 300 nM, while histamine (Sigma) and capsaicin (Sigma) were used at 50 μM and 300 nM, respectively. Only sensory neurons that responded to a final challenge of 100 mM KCl were used in analyses. Fluorescence was recorded at 340 nm and 380 nm excitation wavelengths (F340, F380) using an inverted Nikon Ti-E microscope with NIS-Elements imaging software (Nikon Instruments). Fluorescence ratios (F340/F380) were normalized to baseline and used to reflect changes in intracellular Ca^2+ and neuronal activation upon stimulation. […] Data were derived from two to three independent experiments.

CIP patient (Case 2) = experiment: Clinical history of CIP patient Case 2 (prior treatment); assay type: in vivo, human; conditions: course of oral prednisone prescribed for polymyalgia rheumatica
Description: This example describes four elderly CIP patients with evidence of marked immune dysregulation after exclusion of other cutaneous and systemic causes of pruritus.
TABLE 2 Legend: (a) Average and peak Numerical Rating Scale (NRS) itch scores at the time of presentation to our clinic are noted, respectively. (b) A thorough workup was performed to establish the diagnosis of CIP by exclusion of other cutaneous and systemic causes of pruritus, including psychiatric and neurologic conditions, renal failure, biliary dysfunction, thyroid abnormalities, HIV/AIDS, hepatitis B, and hepatitis C. […] (d) Outside of two episodes of septic arthritis arising from knee replacement surgery, the patient had no history of persistent or recurrent infections, autoimmunity, or malignancy.

MC903-treated WT mice = experiment: Pharmacologic JAK inhibition in MC903-induced AD-associated itch model; assay type: in vivo, mouse
Description: as §1, with “old). Stock ruxolitinib (Selleck Chemicals) solutions were prepared in DMSO (Sigma) per the manufacturer's instructions. For systemic treatments, mice treated twice daily with 100 μg ruxolitinib diluted in 100 μl PBS by intraperitoneal (i.p.) injection. For intrathecal (i.t.) ruxolitinib treatments, mice were injected 24 hours before behavioral assays with 10 μg ruxolitinib diluted in 10 μl PBS. Control mice were injected with appropriate vehicle controls (DMSO in PBS) of equivalent volumes.” for “old).”

AD patients = conditions: cited from earlier work
patients with CIP = experiment: NRS itch scoring of CIP patients under treatment
[1] = i.p. 100 μg twice daily during MC903 treatment, Day 7

Molecule: C=C1/C(=C\C=C2/CCC[C@]3(C)[C@@H]([C@H](C)/C=C/[C@@H](O)C4CC4)CC[C@@H]23)C[C@@H](O)C[C@@H]1O [MC903, calcipotriol]
- histologic score of inflammation (wild type (WT) mice): higher
- itch phenotype by scratching bouts over time (wild type (WT) mice): marked chronic itch phenotype
- skin inflammation measured by ear skin thickening and histologic features (wild type (WT) mice): robust skin inflammation

Molecule: NCCc1c[nH]cn1 [histamine]
- responsive neurons as a percentage of total mouse DRG neurons (mouse DRG neurons): ~25%

Molecule: C[C@]12C=CC(=O)C=C1CC[C@@H]1[C@@H]2C(=O)C[C@@]2(C)[C@H]1CC[C@]2(O)C(=O)CO [prednisone]
- muscle weakness (CIP patient (Case 2)): improved
- pruritus (CIP patient (Case 2)): did not resolve

Molecule: N#CC[C@H](C1CCCC1)n1cc(-c2ncnc3[nH]ccc23)cn1 [ruxolitinib]
- ear skin thickening (MC903-treated WT mice; [1]): statistically significant, but only slight, reduction
- histologic parameters of disease (MC903-treated WT mice; [1]): statistically significant, but only slight, reduction
- scratching bouts (MC903-treated WT mice; [1]): significantly reduced
- peripheral skin inflammation (ear thickness, histopathology, histology score) (MC903-treated WT mice; single intrathecal (i.t.) injection 10 μg): no effect
- scratching bouts (MC903-treated WT mice; single intrathecal (i.t.) injection 10 μg, 24 hours before behavioral assay): marked reduction

Molecule: C[C@@H]1CCN(C(=O)CC#N)C[C@@H]1N(C)c1ncnc2[nH]ccc12 [tofacitinib]
- itch symptoms in AD patients (AD patients; pilot studies and Phase II clinical trials): rapid and significant reduction
- NRS itch score / itch symptoms (patients with CIP; CIP patients (N=5), 5 mg by mouth twice daily, one month): marked improvement; also recorded: improved significantly; also recorded: dramatic improvement
- daily itch scores (NRS), single subject (patients with CIP; one CIP subject over 70 days, cyclosporine alone, then switched to JAK inhibitor): significant improvement

Molecule: IL-4: recombinant murine IL-4 (Peprotech)
- responsive neurons as a percentage of total mouse DRG neurons (mouse DRG neurons): 4.1±0.5%
- calcium response of DRG neurons to stimulation (mouse DRG neurons): rapid rise of intracellular calcium in a subset of neurons
- cytokine-responsive neurons that also responded to IL-31 or histamine (mouse DRG neurons): 88.9%

Molecule: dupilumab: an anti-IL-4Rα monoclonal antibody
- disease and itch severity in AD patients (AD patients; Phase II and III clinical trials): remarkable improvement

B1: IL-5: recombinant murine IL-5 (Peprotech) (protein, UniProt P04401 21-133, looked up)
Interleukin-5: MEIPMSTVVKETLTQLSAHRALLTSNETMRLPVPTHKNHQLCIGEIFQGLDILKNQTVRGGTVEMLFQNLSLIKKYIDRQKEKCGEERRRTRQFLDYLQEFLGVMSTEWAMEG
- calcium response of DRG neurons to stimulation (mouse DRG neurons): no responses; also recorded: does not activate

B2: IL-31: recombinant murine IL-31 (Bristol-Myers Squibb), known cytokine pruritogen (protein, UniProt Q6EAL8 24-163, looked up)
Interleukin-31: TCSLSFGAPISKEDLRTTIDLLKQESQDLYNNYSIKQASGMSADESIQLPCFSLDREALTNISVIIAHLEKVKVLSENTVDTSWVIRWLTNISCFNPLNLNISVPGNTDESYDCKVFVLTVLKQFSNCMAELQAKDNTTC
- responsive neurons as a percentage of total mouse DRG neurons (mouse DRG neurons): approximately 5%

B3: IL-13: recombinant murine IL-13 (Peprotech) (protein, UniProt P20109 19-131, looked up)
Interleukin-13: APGPVPRSVSLPLTLKELIEELSNITQDQTPLCNGSMVWSVDLAAGGFCVALDSLTNISNCNAIYRTQRILHGLCNRKAPTTVSSLPDTKIEVAHFITKLLSYTKQLFRHGPF
- responsive neurons as a percentage of total mouse DRG neurons (mouse DRG neurons): 3.3±0.8%
- calcium response of DRG neurons to stimulation (mouse DRG neurons): rapid rise of intracellular calcium in a subset of neurons
- cytokine-responsive neurons that also responded to IL-31 or histamine (mouse DRG neurons): 75.0%
